Measurements reported in patent publication US20240344145A1, “PHARMACOGENOMICS SCORE TO MAKE DECISIONS ON THERAPY AUGMENTATION IN AML” (University of Florida Research Foundation, Incorporated, priority 2021, published 2024).

Key:
[1] = test system: AML patients (1 month to 29.9 years old); conditions: previously reported, cited from earlier work
[2] = test system: AML patients (1 month to 29.9 years old); test: COG-AAML0531 clinical trial, ADE vs ADE+GO arms: MRD1, EFS and OS overall and by ACS10 score and CD33 SNP; type: in vivo, human; conditions: low ACS10 score
Experimental: AAML0531 clinical trial enrolled previously untreated AML patients (1 month to 29.9 years old) who were randomized to receive ADE (cytarabine 100 mg/m^2/dose twice per day for […] alongside with daunorubicin and etoposide-equivalent to LDAC arm of St. Jude AML02) with or without the addition of 1 dose in induction 1 and 1 dose in intensification of CD33-targeting drug gemtuzumab ozogamicin (ADE+GO arm). Genotype data on 10 SNPs that were part of the ACS10 score in the discovery cohort was generated in 931 patients (n=465 in standard ADE arm and n=466 in ADE+GO arm). […] In subsequent analysis to check whether ACS10 score has impact on the GO addition, the evaluation of patients from the ADE+GO arm was also considered.
The association of MRD1, EFS, and OS was evaluated with ACS10 scores in the AML02 discovery cohort and the AAML0531 validation cohort. The Kaplan-Meier method was used to estimate the EFS and OS probabilities for well-defined groups of patients. Cox regression models were used to associate ACS10 with EFS and OS and used logistic regression models to associate ACS10 with MRD1. The Wilcoxon rank-sum test and Kruskal-Wallis test were used to compare medians of numeric variables across groups. Chi-square tests and Fisher's exact test were used to evaluate the association among pairs of categorical variables. All p-values are two-sided. […]

Substance: gemtuzumab ozogamicin [GO]
- benefit from addition of GO to standard chemotherapy ([1]; CD33 rs12459419 CT/TT genotypes, ADE+GO versus ADE): derived no benefit from addition of GO
- survival (EFS and DFS) with addition of GO to standard chemotherapy ([1]; CD33 rs12459419 homozygous CC genotype): significantly better survival
- benefit from adding GO (EFS and OS) ([2]; CD33 rs12459419 CC genotype): benefit from adding GO
- benefit from addition of GO (EFS and OS) ([2]; CT/TT genotype for CD33 rs12459419): do not benefit from addition of GO
